Measured values published in publication PMC6389896 (Communications Biology, 2019).

Test: Plasma oxytocin after subcutaneous injection, EIA
Type: in vivo, mouse
Conditions: WT and Ager-/- male mice
Description: CSF was collected according to the protocol for sampling CSF from mice without detectable plasma contamination[77],[78]. Under ketamine anaesthesia (100 mg/kg intraperitoneally), the occipital skull was exposed, and the dura mater of the cisterna magna appeared as a glistening and clear reverse triangle through which the medulla oblongata, a major blood vessel (arteria dorsalis spinalis), and CSF space were visible. A capillary tube was inserted into the cisterna magna through the dura mater, blood-free CSF samples were collected with a 32G needle and immediately frozen with dry ice prior to storage at −80 °C. After CSF collections, blood samples were obtained by cardiac puncture from the mice under continuous ketamine anaesthesia.
The CSF samples (5 μl) were thawed and diluted 1:20 in assay buffer. CSF samples were assayed without protein extraction due to the low protein concentration in the CSF. […] The inter-assay and intra-assay coefficients of variation were less than 15%.
Supplementary Figure 5. Transportation of peripherally administrated oxytocin (OT) or PBS into […]
Blood was recovered from the cardiac ventricles of the wild type (WT, RAGE+/+) and Ager-/- (RAGE-/-) male mice (n = 3–16). Oxytocin was measured in the extracted samples. […]
concentrations were measured with enzyme immunosorbent assay (EIA) or LC-MS/MS. […]

For CC[C@H](C)[C@@H]1NC(=O)[C@H](Cc2ccc(O)cc2)NC(=O)[C@@H](N)CSSC[C@@H](C(=O)N2CCC[C@H]2C(=O)N[C@@H](CC(C)C)C(=O)NCC(N)=O)NC(=O)[C@H](CC(N)=O)NC(=O)[C@H](CCC(N)=O)NC1=O [oxytocin, Oxytocin], which Tmax (plasma, sc 30 ng/mouse (approximately 1.1 μg/kg)) is on record?
Its Tmax is ≤ 10 min.

And the “time of return of blood oxytocin to baseline” value (sc 30 ng/mouse)?
The value was 1 to 2 h.
